Experimental data from patent US9616033B2, “Selective metabolic approach to increasing oral bioavailability of phenylephrine and other phenolic bioactivities” (VIRGINIA COMMONWEALTH UNIVERSITY, priority 2011, dated 2017).
Entries after “also recorded” stand apart in the source; their conditions may differ. Values belong to the compound of their own block, whether it stands above or below them.

Assays:
LS180 cells [1] = test: Inhibition of resveratrol metabolism (disappearance) in LS180 cells; type: cell-based, human; details: for activity at 100 µM: Homo sapiens, read-out: Extent of RES Disappearance (as % of control); for inhibition of resveratrol metabolism (in words): 4 hours
LS180 cells [2] = test: Inhibition of 2-methoxyestradiol metabolism (disappearance) in LS180 cells; type: cell-based, human; details: for activity at 100 µM: Homo sapiens, LS180, 1 h
[3] = tested on: human LS180 intestinal cells; test: Inhibition of phenylephrine (PE) metabolism (PE disappearance) in LS180 cells; type: cell-based; details: for activity at 100 µM: Homo sapiens; for effect on PE disappearance / PE metabolism (in words): inhibitor 100 μM
Protocol: The inhibitors which can be used in the practice of the invention are wide ranging. […] The LS180 model provides an inexpensive method to imitate the human intestine, with regards to PE metabolism. […] For the LS180 experiments, LS180 cells are seeded at the concentration of 1.9×10^5 cells/ml in 12-well plate. […] After incubation, medium is removed and stored at −80° C. until analysis. The metabolic reactions are quenched by placing 12-well plate on ice and quickly rinsing each well. The cell extraction of metabolites is carried out with 1 ml 2% acetic acid solution in methanol. Cells are scraped and collected in centrifuge tubes. The suspension is mixed for 2-3 min and centrifuged at 18,000 rcf for 5 min. Supernatants (800 μl) are collected. After scraping, each well is washed twice as above. The washing solution is collected with the supernatant and dried under reduced pressure. The residue is re-suspended in 35 μl water and analyzed by HPLC. […] The data are processed with one-way ANOVA followed by Dunnett's post test; * indicates p<0.05.
Phenolic compounds were selected from FDA's “GRAS” list, approved food additives, or dietary supplements. LS180 cells were used as a model to test the effect of these phenolic compounds on the pre-systemic sulfation of PE. The cells were incubated in 0.5 ml medium with PE (50 μM)±inhibitor (100 μM) overnight. Extracellular buffer was collected and cells were extracted with methanol. PE was determined by reversed-phase HPLC with fluorescence detection. The formation of PE-sulfate was analyzed by LC-MS/MS. Results (n=3 per group) were analyzed by one-way ANOVA with Dunnett's post-test (p<0.05; Prism 5).

[4] = tested on: human LS180 intestinal cells; test: Inhibition of PE sulfate formation in LS180 cells; type: cell-based; details: PE 50 μM ± inhibitor 100 μM, overnight, LC-MS/MS, read-out: PE-sulfate formation inhibited to (control=100%)
Text: The inhibitors which can be used in the practice of the invention are wide ranging. Tables 1 and 2 show results with a number of different compounds which can function as inhibitors of SULT, MAO, CYP, COMT or UGT enzymes, or which otherwise may be used to increase the bioavailability of the exemplary bioactive phenylephrine. […] In Tables 1 and 2, human LS180 intestinal cells were used for screening the inhibition of PE metabolism. For the experiment which produced the results in Table 1, the concentration of PE was […]; the concentration of vitamin C (where present) was 1 mM; the total concentration of other inhibitors was 100 μM. Cells were incubated at 37° C. for 14 to 17.5 hours, as indicated. […] The residue is re-suspended in 35 μl water and analyzed by HPLC. All the samples are analyzed for PE by HPLC with a phenyl column (150×3.2 mm, 5 μm, 55° C.) at the flow rate of […] (20% methanol and 80% (aqueous 1% acetic acid)) and detected by fluorescence (excitation 270 nm, emission 305 nm). […]
Phenolic compounds were selected from FDA's “GRAS” list, approved food additives, or dietary supplements. […] PE was determined by reversed-phase HPLC with fluorescence detection. The formation of PE-sulfate was analyzed by LC-MS/MS. Results (n=3 per group) were analyzed by one-way ANOVA with Dunnett's post-test (p<0.05; Prism 5).

[5] = cited from earlier work
[6] = Biopharmaceutical Classification System (BCS) classification; details: high permeability, high aqueous solubility
Text: Interpreting the data published by Hengstmann, the mass balance of total radioactivity excreted into urine following an oral dose was 92% of what was recovered following an intravenous dose, so that phenylephrine would therefore be considered a “high permeability” compound. (Hengstmann and Goronzy, 1982; Amidon et al., 1995) Combining this with its high aqueous solubility, phenylephrine would be classified as a Biopharmaceutical Classification System (BCS) class 1 compound. […] (Amidon et al., 1995; Wu and Benet, 2005) Therefore, to improve the oral bioavailability of PE, a metabolism-targeted approach would be most useful.

[7] = Fenaroli, 2010; cited from earlier work
[8] = resveratrol 25 μM, inhibitor 100 μM, LS180 cells
[9] = 2-ME 10 μM, inhibitor 100 μM, incubation time 1 hr (table)
[10] = PE 50 μM, LS180 cells, overnight
[11] = 2-ME 10 μM, inhibitor 100 μM, incubation time 1 hr (table), read-out: Extent of 2-ME Disappearance (as % of control)
[12] = PE 50 μM ± inhibitor 100 μM, LS180 cells, overnight, n=3, control=503±127 pmol/hr, read-out: extent of disappearance of PE (mean±SD, as % of control)
[13] = PE 50 μM, inhibitors total 100 μM, LS180 cells, incubation 19 hr, read-out: Extent of PE Disappearance (as % of control)
[14] = PE 50 μM, inhibitors total 100 μM, LS180 cells, incubation 17.5 hr, read-out: Extent of PE Disappearance (as % of control)
[15] = resveratrol 25 μM, inhibitor 100 μM, LS180 cells, incubation 4 hr
[16] = PE 50 μM, inhibitors total 100 μM (ascorbic acid 1 mM), LS180 cells, incubation 14 hr, read-out: Extent of PE Disappearance (as % of control)
[17] = PE 50 μM, inhibitors total 100 μM (ascorbic acid 1 mM), LS180 cells, incubation 17 hr, read-out: Extent of PE Disappearance (as % of control)

SMILES: C=CCc1ccc(O)c(OC)c1 [eugenol]
activity at 100 µM (LS180 cells [1]; LS180, 4 h): 38.3%
inhibition of resveratrol metabolism (in words) (LS180 cells [1]; [8]): significant inhibition
inhibition of 2ME metabolism (in words) (LS180 cells [2]; 2-ME 10 μM, inhibitor 100 μM): Significant inhibition
Extent of 2-ME Disappearance (as % of control) (LS180 cells [2]; [9]): 33.9%
activity at 100 µM (LS180 cells [2]; read-out: Extent of 2-ME Disappearance (as % of control), 2-ME 10 μM, inhibitor 100 μM, incubation time 1 hr (table)): 21.2%
activity at 100 µM ([3]; LS180, 17.5 h, read-out: Extent of PE Disappearance (as % of control)): 133%
effect on PE disappearance / PE metabolism (in words) [3, 10]: failed to inhibit PE metabolism alone; also recorded: no significant effect on PE disappearance

SMILES: O=C(O)c1cc(O)c(O)c(O)c1 [gallic acid]
activity at 100 µM (LS180 cells [2]; [11]): 102%

SMILES: COc1cc(/C=C/c2ccc(O)cc2)cc(OC)c1 [pterostilbene]
activity at 100 µM [3, 12]: 71 ± 7%
activity at 100 µM [3, 13]: 70.6%

SMILES: O=c1c(O)c(-c2ccc(O)c(O)c2)oc2cc(O)cc(O)c12 [quercetin]
activity at 100 µM [3, 14]: 48.7%

SMILES: COc1ccccc1O [guaiacol]
activity at 100 µM [4]: 33 ± 7%
activity at 100 µM [3, 12]: 51 ± 14%
activity at 100 µM ([3]; PE 50 μM, inhibitors total 100 μM, LS180 cells, incubation 18.5 hr, read-out: Extent of PE Disappearance (as % of control)): 51.3%

Biopharmaceutical Classification System (BCS) class [6]: class 1
SMILES: CNC[C@H](O)c1cccc(O)c1 [phenylephrine]
total radioactivity excreted into urine following an oral dose, relative to intravenous dose ([5]; mass balance, oral vs intravenous, Hengstmann data): 92%
oral bioavailability ([5]; oral): < 38%

SMILES: CCCOC(=O)c1cc(O)c(O)c(O)c1 [propyl gallate]
activity at 100 µM (LS180 cells [1]; [15]): 51.2%
inhibition of resveratrol metabolism (in words) (LS180 cells [1]; [8]): significant inhibition
inhibition of 2ME metabolism (in words) (LS180 cells [2]; 2-ME 10 μM, inhibitor 100 μM): Significant inhibition
Extent of 2-ME Disappearance (as % of control) (LS180 cells [2]; [9]): 50.4%
activity at 100 µM (LS180 cells [2]; [11]): 42.8%
activity at 100 µM [3, 16]: 114%
effect on PE disappearance / PE metabolism (in words) [3, 10]: no significant effect on PE disappearance

SMILES: COc1cc(/C=C/C(=O)O)ccc1O [ferulic acid]
activity at 100 µM (LS180 cells [1]; [15]): 100%
activity at 100 µM (LS180 cells [2]; [11]): 102%

SMILES: O=C(O)C=Cc1ccccc1 [cinnamic acid]
activity at 100 µM (LS180 cells [1]; [15]): 16.3%
inhibition of resveratrol metabolism (in words) (LS180 cells [1]; [8]): significant inhibition

SMILES: COc1cc(C(=O)O)ccc1O [vanillic acid]
activity at 100 µM (LS180 cells [1]; [15]): 103%
activity at 100 µM (LS180 cells [2]; [11]): 99.1%

SMILES: CCCOC(=O)c1ccc(O)cc1 [propylparaben]
activity at 100 µM (LS180 cells [1]; [15]): 57.8%
inhibition of resveratrol metabolism (in words) (LS180 cells [1]; [8]): significant inhibition
inhibition of 2ME metabolism (in words) (LS180 cells [2]; 2-ME 10 μM, inhibitor 100 μM): Significant inhibition
Extent of 2-ME Disappearance (as % of control) (LS180 cells [2]; [9]): 57.7%
activity at 100 µM (LS180 cells [2]; [11]): 51.7%
activity at 100 µM [3, 16]: 53.8%

SMILES: O=CC=Cc1ccccc1 [cinnamaldehyde]
Extent of 2-ME Disappearance (as % of control) (LS180 cells [2]; [9]): 93.9%
activity at 100 µM (LS180 cells [2]; [11]): 87.6%

SMILES: COc1cc(/C=C/C(=O)O)cc(OC)c1O [sinapic acid]
activity at 100 µM (LS180 cells [1]; [15]): 86.1%
activity at 100 µM (LS180 cells [2]; [11]): 88.1%

SMILES: O=C(O)/C=C/c1ccc(O)c(O)c1 [caffeic acid]
activity at 100 µM (LS180 cells [1]; [15]): 91.1%
activity at 100 µM (LS180 cells [2]; [11]): 93.3%

SMILES: Oc1ccc(C=Cc2cc(O)cc(O)c2)cc1 [resveratrol]
activity at 100 µM [3, 12]: 14 ± 48%
activity at 100 µM [3, 14]: 14.2%

SMILES: COC(=O)c1ccc(O)cc1 [methylparaben]
activity at 100 µM (LS180 cells [1]; [15]): 0.4%
inhibition of resveratrol metabolism (in words) (LS180 cells [1]; [8]): greatest extent of inhibition
activity at 100 µM [3, 17]: 75.9%

SMILES: COc1cc(/C=C/C(=O)CC(=O)/C=C/c2ccc(O)c(OC)c2)ccc1O [curcumin]
activity at 100 µM [3, 12]: 24 ± 24%
activity at 100 µM [3, 17]: 24.5%

SMILES: C[C@@H]1O[C@@H](O[C@H]2[C@H](Oc3cc(O)c4c(c3)O[C@H](c3ccc(O)cc3)CC4=O)O[C@H](CO)[C@@H](O)[C@@H]2O)[C@H](O)[C@H](O)[C@H]1O [naringin]
activity at 100 µM [3, 14]: 75.7%

SMILES: COc1cc(C=O)ccc1O [vanillin]
activity at 100 µM (LS180 cells [1]; [15]): 44.8%
inhibition of resveratrol metabolism (in words) (LS180 cells [1]; [8]): significant inhibition
inhibition of 2ME metabolism (in words) (LS180 cells [2]; 2-ME 10 μM, inhibitor 100 μM): Significant inhibition
Extent of 2-ME Disappearance (as % of control) (LS180 cells [2]; [9]): 39.4%
activity at 100 µM (LS180 cells [2]; [11]): 51.2%
activity at 100 µM [3, 16]: 90.2%
effect on PE disappearance / PE metabolism (in words) [3, 10]: failed to inhibit PE metabolism alone; also recorded: no significant effect on PE disappearance
acceptable daily intake [7]: 10 mg/kg/day

SMILES: COc1cc(CCC(C)=O)ccc1O [zingerone]
activity at 100 µM (LS180 cells [1]; [15]): 83.7%
activity at 100 µM [3, 12]: 52 ± 25%
activity at 100 µM [3, 17]: 52.4%

SMILES: CC=Cc1ccc(O)c(OC)c1 [isoeugenol]
activity at 100 µM [3, 12]: 74 ± 8%
activity at 100 µM [3, 13]: 73.9%

SMILES: CCOc1cc(C=O)ccc1O [ethylvanillin]
activity at 100 µM (LS180 cells [1]; [15]): 8.1%
inhibition of resveratrol metabolism (in words) (LS180 cells [1]; [8]): greatest extent of inhibition
activity at 100 µM [3, 17]: 76.5%

SMILES: O=C(/C=C/C=C/c1ccc2c(c1)OCO2)N1CCCCC1 [piperine]
activity at 100 µM (LS180 cells [1]; [15]): 26.4%
